Measured values from patent US9376499B2, “PAR-1 activation by metalloproteinase-1 (MMP-1)” (Tufts Medical Center, Inc., priority 2009, dated 2016).
Non-standard residues stand in square brackets, D forms with d. Residues, ends and D or L forms follow the SMILES beside them. *: point of attachment. 4Abz = Nc1ccc(C(=O)O)cc1; NHOH = ON*

Assays:
MMP-1 [1] = target: T1, MMP-1 (Homo sapiens, UniProt P03956); details: cited from earlier work
T1 sequence (P03956 100-469): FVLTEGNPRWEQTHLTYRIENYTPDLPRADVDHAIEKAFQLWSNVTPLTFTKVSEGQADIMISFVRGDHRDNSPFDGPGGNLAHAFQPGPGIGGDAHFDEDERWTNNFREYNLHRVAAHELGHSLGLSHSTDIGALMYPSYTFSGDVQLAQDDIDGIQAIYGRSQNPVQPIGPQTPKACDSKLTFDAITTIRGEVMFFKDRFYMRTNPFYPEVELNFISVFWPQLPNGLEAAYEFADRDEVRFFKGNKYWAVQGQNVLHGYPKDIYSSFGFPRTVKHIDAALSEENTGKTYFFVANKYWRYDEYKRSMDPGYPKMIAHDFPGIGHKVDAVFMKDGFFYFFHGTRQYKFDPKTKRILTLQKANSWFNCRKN

MMP-1 [2] = target: T1, MMP-1; assay: Collagenase (active MMP-1) activity of collagen-stimulated human platelets, DQ collagen I fluorogenic substrate; type: biochemical; set-up: endogenous in cells; host or cells: human platelets from healthy donors, stimulated with collagen, ADP or U-46619; details: 3 μM FN-439 or 20 μg/ml blocking Ab; platelets treated with 20 μg/ml collagen
Experimental: The enzymatic activity of active MMP-1 in supernatants and platelet lysates was then determined. Human or guinea pig platelets from PRP were concentrated four-fold by centrifugation at 700 g for 25 min at room temperature, and then resuspended in 0.25 volume of PIPES containing 1 mM EDTA (final platelet count was 10^9/mL). Platelets were treated with PBS (buffer), 20 μM ADP, 20 μM U-46619, or 20 μg/ml collagen in the presence of 2.5 mM CaCl2. The platelets were incubated for 15 min at 37° C. with occasional gentle mixing. Platelets were collected by centrifugation at 10,000 g for 5 min at 4° C. and resuspended in lysis buffer (50 mM Tris HCl, 100 mM NaCl, 1 mM NaF, 5 mM EDTA, 0.1% (v/v) Triton X-100, 100 μM PMSF, pH 7.4) and then sheared with a 27 gauge needle.
The enzymatic activity of active MMP-1 in supernatants and platelet lysates was measured using DQ collagen I (Molecular Probes) as fluorogenic substrate and reporter of collagenase activity substrate (Boire et al., 2005) in the presence or absence of 3 μM FN-439, or 20 μg/ml each of control IgG, MMP-1 blocking Ab, MMP-8 blocking Ab or MMP-13 blocking Ab (preincubated for 2 h at 37° C.), as indicated with APMA-activated MMP-1 serving as control (FIG. 1A, striped bars). […]

MMP-8 = MMP-8 (Homo sapiens, UniProt P22894); details: cited from earlier work
PAR1 = assay: Release of PAR1 N-terminal cleavage peptide from gel-filtered platelets (dot blot, IIaR-A antibody); type: cell-based, human
Description: To further understand how collagen is able to activate significant amounts of endogenous MMP-1 collagenase activity on the surface of platelets, experiments were devised to determine if PAR-1 is cleaved in either an autocrine or paracrine manner following exposure to collagen. Using a monoclonal antibody raised against the amino-terminal thrombin-cleavage peptide region of PAR1, residues 32-46 (Loew et al., 2000), the relative abilities of thrombin, MMP-1 and collagen to cause cleavage of platelet PAR1 was assessed. Gel filtered platelets were treated for 10 min with thrombin (3 nM), MMP-1 (3 nM), collagen (5 μg/ml), in the presence or absence (PBS buffer) of 0.00013 U hirudin or 5 μM FN-439 at 37° C. Supernatants were concentrated 20-fold and applied to nitrocellulose membranes, then probed with the IIaR-A monoclonal antibody. The PAR1 N-terminal thrombin deavage peptide (A26-R41) and PAR1 flexible linker peptide (N-acetyl-T67-L84 -C) (Kuliopulos et al., 1999) served as positive and negative controls (100 ng), respectively.
These platelets were then stimulated with collagen (5 μg/ml) for 10 min. at 37° C. Supernatants were concentrated 20-fold and applied to nitrocellulose membranes, then probed with the IIaR-A monoclonal antibody. […] FN-439, or an MMP1-blocking antibody (20 μg/ml) but not by thrombin inhibitor, hirudin (see FIG. 1E, FIG. 1G).

MMP-8, sequence (P22894 101-467, species assumed): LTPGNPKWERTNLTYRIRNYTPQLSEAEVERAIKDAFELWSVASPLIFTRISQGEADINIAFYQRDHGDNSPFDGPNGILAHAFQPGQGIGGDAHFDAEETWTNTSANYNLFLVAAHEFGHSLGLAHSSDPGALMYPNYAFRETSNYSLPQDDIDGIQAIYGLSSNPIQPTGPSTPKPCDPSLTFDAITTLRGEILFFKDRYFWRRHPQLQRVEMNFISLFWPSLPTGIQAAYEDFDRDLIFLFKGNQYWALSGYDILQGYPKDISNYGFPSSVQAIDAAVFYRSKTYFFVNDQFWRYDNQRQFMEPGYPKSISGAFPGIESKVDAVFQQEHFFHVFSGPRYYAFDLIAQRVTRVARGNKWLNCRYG

CC(C)C[C@@H](NC(=O)[C@@H]1CCCN1C(=O)CNC(=O)c1ccc(N)cc1)C(=O)N[C@H](C)C(=O)NO [FN-439] (H-[4Abz]GP[dL][dA]-{NHOH})
IC50 (MMP-1 [1]): 1 µM | inhibition of platelet collagenase activity released by collagen (cleavage of fluorogenic collagen substrate) (MMP-1 [2]): completely blocked | IC50 (MMP-8): 1 µM | block of MMP-1-induced release of N-terminal cleavage peptide of PAR1 (PAR1; 3 nM MMP-1, 5 μM FN-439): blocked | block of collagen-induced release of PAR1 N-terminal peptide (PAR1; 5 μg/ml collagen, 10 min, 37° C., Ab 20 μg/ml, ARC 0.5 μM, ASA 1 mM): specifically blocked
